Data on one substance can be found in patent publication US7785581B2, “Composition and method for reducing feces toxins and treating digestive disorders” (Qingdao East Sea Pharmaceuticals Ltd., priority 2006, dated 2010).

What all share (format): in vivo, human
Experiment [1] concerns patients with diarrhea. The experiment in a line: Treatment of diarrhea associated with alcohol intake (Example 10). The following applies: 14 to 21 days.
A further experiment relates to IBS patients. The experiment is described as follows: Treatment of IBS with live Bifidobacterium tablets (Example 8).
Experiment [2] concerns patients with diarrhea. The experiment is described as follows: Treatment of diarrhea associated with cold or raw food, or with common cold (Example 9). The following applies: 14 to 21 days.
Where [3] appears, read: diarrhea after drinking alcohol.
Setting [4] is: 57 IBS patients, 14 to 21 days, cured plus effective.
The mark [5] stands for this setting: diarrhea after cold/raw food or common cold.

As to Bifidobacterium, the “effectiveness in treating diarrhea associated with alcohol intake” value with patients with diarrhea [1] is given as “highly effective”. In the experiment with patients with diarrhea [1] (setting [3]), the “Cured (cases)” value is on record as 21, the “Effective (cases)” value is 13, the “Improved (cases)” value is on record as 4 and the “Ineffective (cases)” value came to 0. In addition, the Efficacy with patients with diarrhea [1] (diarrhea after drinking alcohol, cured plus effective) was found to be 89.5%. In the experiment on IBS patients (57 IBS patients, 14 to 21 days), the Cured % came to 61%, the “Cured Case No.” value is 35, the Effective % is 28% and the “Effective Case No.” value is on record as 16. In the experiment with IBS patients (57 IBS patients, 14 to 21 days), the Improved % is on record as 11%, the “Improved Case No.” value stood at 6, the Ineffective % is on record as 0% and the “Ineffective Case No.” value worked out at 0. In the experiment on IBS patients (setting [4]), the “Effective Cases % (overall effective rate)” value is 89% and the “Effective Cases Case No.” value is given as 51. In the experiment with IBS patients (IBS patients), the “other IBS symptoms, such as abdominal pain and discomfort” value was “alleviated”. In addition, in the experiment with IBS patients (most of the IBS patients), the “symptoms of diarrhea or constipation” value is on record as “ameliorated”. In addition, the “effectiveness in treating diarrhea associated with eating cold or raw foods, or with common cold” value with patients with diarrhea [2] is recorded as “highly effective”. Further, in the experiment with patients with diarrhea [2] (setting [5]), the “Cured (cases)” value was found to be 23, the “Effective (cases)” value is recorded as 14, the “Improved (cases)” value came out at 5 and the “Ineffective (cases)” value is listed as 0. The Efficacy in the experiment on patients with diarrhea [2] (diarrhea after cold/raw food or common cold, cured plus effective) is 88.10%.
